Test results as given in patent publication US11401279B2, “Pyrido[3,2-d]pyrimidine compounds as immunomodulators” (Incyte Corporation, priority 2019, dated 2022).

Key:
PD-1/PD-L1 = PD-1/PD-L1 (Homo sapiens (Human), UniProt Q9NZQ7); test: Homogeneous Time-Resolved Fluorescence (HTRF) PD-1/PD-L1 binding assay; conditions: recombinant human PD-1 and PD-L1
How it was run: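 Human PD-1 (25-167, Fc-tagged; 3 nM) and PD-L1 (19-238, His-tagged; 10 nM) were preincubated 40 min with inhibitors in PBS pH 7.4, 0.05% Tween-20, 0.1% BSA, 1% DMSO, at 25 °C. Eu-anti-human IgG (1 nM) and anti-His-APC (20 nM) were added for 60 min. The 665/620 nm HTRF ratio gave IC50 by curve fitting.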

PD-L1 = PD-L1 (Homo sapiens (Human), UniProt Q9NZQ7); test: PD-L1 whole blood internalization assay; format: cell-based; conditions: PD-L1 internalization in human whole blood, CD14+ cells, interferon γ, 24 hour
Chain of PD-L1 (Q9NZQ7 19-290): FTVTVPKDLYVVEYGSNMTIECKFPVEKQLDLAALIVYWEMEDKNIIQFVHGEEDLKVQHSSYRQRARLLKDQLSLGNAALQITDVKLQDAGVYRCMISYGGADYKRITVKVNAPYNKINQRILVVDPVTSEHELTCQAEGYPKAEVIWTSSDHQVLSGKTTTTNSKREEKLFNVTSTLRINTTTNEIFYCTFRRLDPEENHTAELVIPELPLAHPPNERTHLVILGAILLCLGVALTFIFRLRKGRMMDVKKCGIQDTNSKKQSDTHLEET

[1] = In vivo pharmacokinetics in monkeys; conditions: cynomolgus monkey, cassette dosing; for clearance / half-life / Vd / AUC(0-inf) / Cmax: both sexes, plasma; for clearance / half-life / Vd: 1.0 mg/kg IV; for Vd: read-out: Vss; for AUC(0-inf) / Cmax / F: 3.0 mg/kg PO
Protocol: For in vivo pharmacokinetic experiments, test compounds were administered to male Sprague Dawley rats or male and female Cynomolgus monkeys intravenously or via oral gavage. For intravenous (IV) dosing, test compounds were dosed at 0.5 to 1 mg/kg using a formulation of 10% dimethylacetamide (DMAC) in acidified saline via IV bolus for rat and 5 min or 10 min IV infusion for monkey. For oral (PO) dosing, test compounds were dosed at 1.0 to 3.0 mg/kg using 5% DMAC in 0.5% methylcellulose in citrate buffer (pH 3.5). Blood samples were collected at predose and various time points up to 24 hours postdose. All blood samples were collected using EDTA as the anticoagulant and centrifuged to obtain plasma samples. The plasma concentrations of test compounds were determined by LC-MS methods. The measured plasma concentrations were used to calculate PK parameters by standard noncompartmental methods using Phoenix® WinNonlin software program (version 7.0, Pharsight Corporation).
In rats and monkeys, cassette dosing of test compounds were conducted to obtain preliminary PK parameters.

[2] = tested on: PD-L1 aAPC/CHO-K1 cells and Jurkat-PD-1-NFAT effector cells; test: Nuclear factor of activated T-cells (NFAT) assay; format: cell-based; conditions: Cricetulus griseus, CHO-K1; luminescence, 24 hours
How it was run: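 PD-L1 aAPC/CHO-K1 cells (8000/well) co-cultured with Jurkat-PD-1-NFAT effector cells (10,000/well) plus compound in RPMI/1% FBS, 0.4% DMSO, top concentration 2 μM, 24 h at 37 °C. NFAT luciferase read by Bio-Glo luminescence. Fold induction normalized to DMSO; maximum induction relative to control compound; EC50 from curve fit.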

Chain of PD-1/PD-L1 (Q9NZQ7 19-238): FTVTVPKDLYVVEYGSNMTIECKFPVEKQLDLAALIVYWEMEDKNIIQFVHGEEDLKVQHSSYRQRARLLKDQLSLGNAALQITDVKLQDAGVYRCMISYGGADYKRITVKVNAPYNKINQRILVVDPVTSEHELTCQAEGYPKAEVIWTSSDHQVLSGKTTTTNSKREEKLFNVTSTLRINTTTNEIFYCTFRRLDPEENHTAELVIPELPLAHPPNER

Row | IC50 (PD-1/PD-L1) [nM] | IC50 (PD-L1) [nM] | clearance [1] [L/h/kg] | half-life [1] [h] | Vd [1] [L/kg] | AUC(0-inf) [1] [µM·h] | Cmax [1] [µM] | F [1] [%] | Compound | EC50 [2] [nM]
1 | 2.2 | 7.9 | 0.255 | 6.35 | 1.01 | 8.24 | 0.794 | 59 | Cc1c(Nc2nc(C(F)F)nc3cc(CN4CC[C@@H](O)C4)cnc23)cccc1-c1cccc(NC(=O)c2nc3c(n2C)CCN(CCC24CCC(C(=O)O)(CC2)C4)C3)c1Cl [Example 1, (R)-4-(2-(2-((2-chloro-3′-((2-(difluoromethyl)-7-((3-hydroxypyrrolidin-1-yl)methyl)pyrido[3,2-d]pyrimidin-4-yl)amino)-2′-methyl-[1,1′-biphenyl]-3-yl)carbamoyl)-1-methyl-1,4,6,7-tetrahydro-5H-imidazo[4,5-c]pyridin-5-yl)ethyl)bicyclo[2.2.1]heptane-1-carboxylic Acid] | 2
2 | 1.5 | 8 | 0.287 | 6.23 | 1.36 | 6.84 | 0.579 | 57 | Cc1c(Nc2nc(C(F)F)nc3cc(CN4CC[C@@](C)(O)C4)cnc23)cccc1-c1cccc(NC(=O)c2nc3c(n2C)CCN(CCC24CCC(C(=O)O)(CC2)C4)C3)c1Cl [Example 2, (R)-4-(2-(2-((2-chloro-3′-((2-(difluoromethyl)-7-((3-hydroxy-3-methylpyrrolidin-1-yl)methyl)pyrido[3,2-d]pyrimidin-4-yl)amino)-2′-methyl-[1,1′-biphenyl]-3-yl)carbamoyl)-1-methyl-1,4,6,7-tetrahydro-5H-imidazo[4,5-c]pyridin-5-yl)ethyl)bicyclo[2.2.1]heptane-1-carboxylic Acid] | 4
3 | 2.1 | 60 | 0.296 | 8.48 | 1.14 | 11.1 | 1.3 | 89 | Cc1c(NC(=O)c2nc3c(n2C)CCN(CCC24CCC(C(=O)O)(CC2)C4)C3)cccc1-c1cccc(Nc2nc(C(F)F)nc3cc(CN4CC[C@@H](O)C4)cnc23)c1C [Example 5, (R)-4-(2-(2-((3′-((2-(difluoromethyl)-7-((3-hydroxypyrrolidin-1-yl)methyl)pyrido[3,2-d]pyrimidin-4-yl)amino)-2,2′-dimethyl-[1,1′-biphenyl]-3-yl)carbamoyl)-1-methyl-1,4,6,7-tetrahydro-5H-imidazo[4,5-c]pyridin-5-yl)ethyl)bicyclo[2.2.1]heptane-1-carboxylic Acid] | 9.2
